Patent US20100204161A1, “Substances and Pharmaceutical Compositions for the Inhibition of Glyoxalases and Their Use Against Bacteria” (BIOMAC PRIVATINSTITUT FUR MEDIZINISHE UND ZAHMEDIZ …, priority 2005, published 2010)

Experiments:
[1] = tested on: primary human skin fibroblasts; experiment: Vitality of primary human fibroblasts (dye exclusion count); type: cell-based; settings: 1-50 mM, serum free medium, 24 hours; FIG. 7
Experimental: An identical number (10^4 cells per well) of primary human skin fibroblasts were inoculated in 24-well plates (Greiner, no. 662160) and were cultured in DMEM (Gibco; no. 41966-092) in the presence of 10% calf serum (Biochrom, S0113/5), 2 mM L-glutamine (Gibco; no. 25030-024), penicillin/streptomycin (100 units penicillin/ml; 100 μg streptomycin/ml, Gibco; no. 15140/122), 5 mg % ascorbic acid (Serva, no. 14030.02) at 37° C., 5% CO2 and 95% humidity. The primary human fibroblasts were prepared according to the instructions of Birkenmeier et al. (1998). After reaching 50% confluency the medium was by fresh serum free medium. Thereafter the following supplements were added to the cells: preparation 1 (equivalent volume of serum free (SF) medium, blank); preparation 2 (1 mM DEL or 1 mM LEL or 1 mM EP); preparation 3 (5 mM DEL or 5 mM LEL or 5 mM EP), preparation 4 (10 mM DEL or 10 mM LEL or 10 mM EP), preparation 5 (20 mM DEL or 20 mM LEL or 20 mM EP), preparation 6 (50 mM DEL or 50 mM LEL or 50 mM EP). The culture was continued at 37° C., 5% CO2 and 95% humidity for 24 hours. Thereafter the supernatants were removed and 100 μl of a 50% […] solution was added to the wells. After washing the cells with medium the unstained and stained cells were counted under the light optical microscope comprising a coordinate plane. Cells stained blue were assessed as avital, unstained cells as vital. The percentage of unstained cells of the total number of cells corresponds to the vitality of the cells.

[2] = target: T1, yeast glyoxalase I (Saccharomyces cerevisiae, UniProt P50107); experiment: Enzymatic activity of yeast glyoxalase I (formation of S-D-lactoyl-glutathione, 240 nm); type: biochemical; settings: for Influence on the enzymatic activity of yeast glyoxalase I: increasing concentrations (0-30 mM in Example 5), FIG. 1-3
T1 construct: purchased Sigma G-4252
T1 sequence (P50107 1-326): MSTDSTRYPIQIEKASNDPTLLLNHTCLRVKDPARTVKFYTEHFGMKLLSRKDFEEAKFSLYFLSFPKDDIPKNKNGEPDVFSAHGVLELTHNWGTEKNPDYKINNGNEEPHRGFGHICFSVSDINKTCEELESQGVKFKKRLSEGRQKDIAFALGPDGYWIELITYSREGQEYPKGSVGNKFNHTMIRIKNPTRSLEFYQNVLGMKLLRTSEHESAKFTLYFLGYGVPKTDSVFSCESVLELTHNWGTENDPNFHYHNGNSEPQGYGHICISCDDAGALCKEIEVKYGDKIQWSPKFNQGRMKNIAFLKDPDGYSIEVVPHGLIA
Experimental: Measuring glyoxalase I (E.C.4.4.1.5, lactoyl-glutathione lyase Sigma, G-4252) was performed according to the instructions of McLellan and Thornalley (1989). The principle is based on measuring the initial rate of formation of S-D-lactoyl-glutathione from methylglyoxal (Sigma, MO252, 40%) and reduced L-glutathione (Aldrich, G-4251, >99%). The formation of the product is observed using the extinction coefficient e=2.86 mM-1 cm-1 at 240 nm. The measurement was performed in 50 mM sodium phosphate buffer, pH 7.0. For that purpose 2 mM methylglyoxal and 2 mM reduced glutathione were incubated for 2 minutes at 30° C. for the formation of the hemithioacetal. Thereafter 20 μl of a 1 to 1000 dilution of the glyoxalase I (Sigma, G-4252) was added to 1 ml of the measuring reagent to start the reaction.
Glyoxalase activity (IU) corresponds to the amount of enzyme forming 1 μmol of S-D-lactoyl-glutathione/min.
Determination of glyoxalase I activity was performed according to the general protocol as described above. The influence of ethyl pyruvate on enzyme activity was investigated by addition of increasing concentrations of EP (Sigma; no. E4, 780-8; lot. S18972-513) to the measuring reagent.
Determination of glyoxalase I activity was performed according to the general protocol as described above. The influence of compounds of the general formula (I), (II), and (III) on the activity of the enzyme was investigated by addition of increasing concentrations of these compounds to the preparation. The IC50-values were calculated from inhibition curves of each compound.
Determination of glyoxalase I activity was performed according to the general protocol as described above. The influence of 2-oxopropanethioic acid S-ethyl ester on the activity of the enzyme was investigated by addition of increasing concentrations of SE to the preparation for the measurement.
Determination of glyoxalase I activity was performed according to the general protocol as described above. The influence of effectors on the enzymatic activity was investigated by addition of increasing concentrations (0-30 mM) of EP (Sigma; no. E4, 780-8; lot. S18972-513) (triangle), BP (prepared according to the instructions of patent JP 11080089; 98%) (circle) and BL (Fluka, 69819; lot. 443090/1 21503090) (squares) to the measuring reagent (FIG. 3).

[3] = tested on: NAD-dependent lactate dehydrogenases; experiment: Interconversion by NAD-dependent lactate dehydrogenases; type: in vitro ADME; settings: inventors' own measurements
[4] = tested on: biofilms (biofilm-forming microorganisms from pipe water); experiment: Destruction of biofilms on contaminated silicone surfaces (colony forming units); type: cell-based; settings: normalized to 1 cm2 inner tube surface
Experimental: Biofilms were allowed to generate in a silicon tube system according to Gebel et al. (2005). In short, pipe water from a public water distributor was used as the source of biofilm-forming microorganisms. Water flow was at about 20 l per hour through silicon tubes from two commercial suppliers with inner diameters of 4 mm for 30 days at 25° C. After that the tubes were emptied, sealed at both ends and treated on their outer surface with 0.2% peroxoacetic acid for 1 hour. Tubes were then rinsed with sterile water and afterwards cut into pieces of 5 cm length each using a sterile scalpel. Pieces obtained this way were then dipped into solutions which contained the substance to be tested or respective controls. 25 ml of the test solutions were used in closed Falcon tubes (50 ml). […] Tubes were opened over their full length with scissors and the material deposited at the original inner surfaces of the tubes homogenized in 10 ml of saline (9 g NaCl/l water). Dilutions were made (decimal steps to 10^4) and 0.1 ml of these solutions plated onto test agar plates (1 l contained 0.5 g yeast extract, 0.5 g peptone, 0.5 g casein hydrolysate, 0.5 g starch. 0.3 g potassium hydrogen phosphate, 24 mg magnesium sulphate, 0.3 g sodium pyruvate, 15 g agar). Plates were incubated for seven days at 20° C. Colonies which formed were counted on each plate independent of their appearance and color. […] Two dilutions must be consistent in colony numbers, taken into consideration the respective dilution factors. Numbers were normalized to 1 cm2 of the inner tube surface. Each substance was analysed in duplicates. Biofilms were treated with water (control), ethyl pyruvate […] Numbers are given for each of the different silicon tubes used.

SMILES: CCOC(=O)[C@@H](C)O [(+)-Ethyl D-Lactate]
- Effect on the vitality of primary human fibroblasts [1]: not toxic over the concentration range investigated

SMILES: CCCCOC(=O)[C@H](C)O [(−)-Butyl L-Lactate]
- Influence on the enzymatic activity of yeast glyoxalase I [2]: does not influence the reaction of glyoxalase

SMILES: CCOC(=O)[C@H](C)O [(−)-Ethyl L-Lactate]
- Effect on the vitality of primary human fibroblasts [1]: not toxic over the concentration range investigated

SMILES: CCCCOC(=O)C(C)O (stereo not drawn) [Butyl lactate]
- Transformation by NAD-dependent lactate dehydrogenases [3]: to a lesser degree than ethyl lactate, also be transformed

SMILES: CCCCOC(=O)C(C)=O [Butyl pyruvate]
- Effect on yeast glyoxalase I compared with EP ([2]; 0-30 mM, FIG. 3): the effect of BP is stronger than the effect of EP
- Influence on the enzymatic activity of yeast glyoxalase I [2]: inhibit the activity of glyoxalase I in a concentration dependent manner

SMILES: CCOC(C)=O [Ester control, ethyl acetate, reference compound]
- Colony forming units derivable from biofilms after treatment ([4]; 25 mM, 30 min, first silicon tube): 5.1 × 10^5 colony forming units
- Colony forming units derivable from biofilms after treatment ([4]; 25 mM, 30 min, second silicon tube): 6.5 × 10^5 colony forming units
- Colony forming units derivable from biofilms after treatment ([4]; 25 mM, 120 min, first silicon tube): 7.0 × 10^4 colony forming units
- Colony forming units derivable from biofilms after treatment ([4]; 25 mM, 120 min, second silicon tube): 1.1 × 10^5 colony forming units

SMILES: CC(=O)OO [Peroxo acetic acid, peroxoacetic acid, reference compound]
- Colony forming units derivable from biofilms after treatment ([4]; 0.1%, 30 min, first silicon tube): 8.2 × 10^3 colony forming units
- Colony forming units derivable from biofilms after treatment ([4]; 0.1%, 30 min, second silicon tube): 9.3 × 10^3 colony forming units
- Colony forming units derivable from biofilms after treatment ([4]; 0.1%, 120 min, first silicon tube): 3.1 × 10^3 colony forming units
- Colony forming units derivable from biofilms after treatment ([4]; 0.1%, 120 min, second silicon tube): 4.7 × 10^3 colony forming units

SMILES: CCSC(=O)C(C)=O [SE, 2-Oxopropanethioic acid S-ethyl ester]
- Influence on the enzymatic activity of yeast glyoxalase I [2]: inhibits the reaction of the glyoxalase I of yeast in a concentration dependent manner
